Data reported in patent publication US9345742B2, “Aminostatin derivatives for the treatment of arthrosis” (MERCK PATENT GMBH, priority 2011, dated 2016).
pIC50: −log10 of the molar value. Numbered stars: 1 amine (or outer) side, 2 acyl side, 3 side chain; on linkers, the order of the positions; unused ones are H or OH. Square brackets hold non-standard residues; d marks the D form. Peptide text beside a SMILES is read from it. * marks the point of attachment. X1 = N[C@@H](CC(=O)[*:2])[C@H](Cc1ccccc1)N[*:1]; Isovaleryl = CC(C)CC(=O)*; Abu = CC[C@H](N)C(=O)O; Boc = CC(C)(C)OC(=O)*

What was measured:
[1] = molecular target: cathepsin D isolated from the human liver (Homo sapiens (Human), UniProt P07339); assay: In-vitro fluorescence assay for identification of cathepsin D inhibitors; type: biochemical; conditions: cathepsin D 1.4 nM, pH 5.5; read-out: CatD assay IC50-
Method: In order to identify modulators of cathepsin D activity, a continuous enzymatic test was carried out with a synthetic peptide which carries a fluorescent group (MCA=(7-methoxycoumarin-4-yl)acetyl) which is quenched by energy transfer from a Dpn (2,4 dinitrophenyl) group on the same molecule, in Greiner 384-well nb microtitre plates. Cleavage of the peptidic substrate by cathepsin D causes an increase in the fluorescence intensity. In order to determine the efficacy of substances, the time-dependent increase in the fluorescence intensity in the presence of the substance was compared with the time-dependent increase in fluorescence in the absence of substances. The reference substance used was pepstatin A (Sigma-Aldrich). The substrate used was […](Dnp)d-R—NH2 (Enzo Life Sciences, Lörrach). The enzyme employed was cathepsin D isolated from the human liver (Sigma-Aldrich) in a final concentration of 1.4 nM. The test was carried out in 100 mM sodium acetate buffer, 1.25% (v/v) of DMSO, 0.25% (w/v) of Chaps, pH 5.5. 2 μl of each substance solution with serially diluted substance concentration were added to in each case 4 μl of cathepsin D solution and incubated at room temperature for 10 min. The reaction was started by addition of 2 μl of substrate solution (final concentration 5 μM). After carrying out a starting-point fluorescence measurement (excitation wavelength 340 nm/emission wavelength 450 nm) using an Envision multilabel reader (Perkin Elmer), the reaction was incubated at room temperature for 60 min. The amount of peptide fragment cleaved off during the reaction time was subsequently measured by determination of the increase in the fluorescence intensity at 450 nm (excitation wavelength 340 nm).

recombinant human renin = recombinant human renin (Homo sapiens (Human), UniProt P00797); assay: In-vitro fluorescence assay for identification of renin-inhibitory activity; type: biochemical; conditions: recombinant human renin 10 nM, pH 7.2; read-out: Renin selectivity IC50
Method: In order to identify modulators of renin activity, a continuous enzymatic test was carried out with a synthetic peptide which carries a fluorescent group Edans (=(5-(aminoethyl)aminonaphthalenesulfonate) which is quenched by energy transfer from a Dabcyl (4′-dimethylaminoazobenzene-4-carboxylate) group on the same molecule, in Greiner 384-well microtitre plates. Cleavage of the peptidic substrate by renin causes an increase in the fluorescence intensity. In order to determine the efficacy of substances, the time-dependent increase in the fluorescence intensity in the presence of the substance was compared with the time-dependent increase in fluorescence in the absence of substances. The reference substance used was renin inhibitor 2 (Z-Arg-Arg-Pro-Phe-His-Sta-Ile-His N-Boc-Lys methyl ester Z) (Sigma-Aldrich). The substrate used was renin FRET substrate I (DABCYL-g-Abu-[…]EDANS) (Anaspec, Fremont Calif.). The enzyme employed was recombinant human renin (Proteos, Kalamazoo, Mich.) in a final concentration of 10 nM. The test was carried out in 50 mM Mops buffer, 1.5% (v/v) of DMSO, 0.1% (w/v) of Igepal®, pH 7.2, 0.5% (w/v) of BSA. 2 μl of each substance solution with serially diluted substance concentration were added to in each case 4 μl of renin solution and incubated at room temperature for 15 min. The reaction was started by addition of 4 μl of substrate solution (final concentration 5 μM). After carrying out a starting-point fluorescence measurement (excitation wavelength 340 nm/emission wavelength 495 nm) using an Envision multilabel reader (Perkin Elmer), the reaction was incubated at 37° C. for 60 min. The amount of peptide fragment cleaved off during the reaction time was subsequently measured by determination of the increase in the fluorescence intensity at 495 nm (excitation wavelength 340 nm).

Sequence of cathepsin D isolated from the human liver (P07339 65-161): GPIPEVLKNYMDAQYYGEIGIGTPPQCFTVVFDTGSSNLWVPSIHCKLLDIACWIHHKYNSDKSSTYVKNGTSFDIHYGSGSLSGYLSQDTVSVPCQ
Sequence of cathepsin D isolated from the human liver (P07339 169-412): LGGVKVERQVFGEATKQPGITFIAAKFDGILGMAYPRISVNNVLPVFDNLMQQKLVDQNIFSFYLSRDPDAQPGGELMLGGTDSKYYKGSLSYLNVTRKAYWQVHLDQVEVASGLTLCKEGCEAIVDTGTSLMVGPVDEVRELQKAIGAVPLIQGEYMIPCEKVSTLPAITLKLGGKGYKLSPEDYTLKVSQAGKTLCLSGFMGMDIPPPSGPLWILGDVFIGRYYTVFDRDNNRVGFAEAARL
Sequence of recombinant human renin (P00797 67-406): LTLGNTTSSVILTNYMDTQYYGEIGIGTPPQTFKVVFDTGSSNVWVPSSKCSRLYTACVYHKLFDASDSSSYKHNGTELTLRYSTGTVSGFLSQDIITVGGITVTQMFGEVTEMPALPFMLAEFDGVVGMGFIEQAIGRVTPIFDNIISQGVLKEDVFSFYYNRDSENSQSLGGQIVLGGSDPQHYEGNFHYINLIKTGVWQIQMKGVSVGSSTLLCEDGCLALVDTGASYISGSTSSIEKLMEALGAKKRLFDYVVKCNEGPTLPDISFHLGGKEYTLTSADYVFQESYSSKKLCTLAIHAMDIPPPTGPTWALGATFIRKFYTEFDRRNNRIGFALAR

SMILES	pIC50 [1]	pIC50 (recombinant human renin)
CC[C@H](NC(=O)[C@@H](N)CC(C)C)C(=O)N[C@@H](Cc1ccccc1)[C@@H](N)CC(=O)N[C@H](C(=O)N[C@H](C(=O)OC)C(C)C)[C@@H](C)CC [Compound 2, Methyl (S)-2-((2S,3S)-2-{(3S,4S)-3-amino-4-[(S)-2-((S)-2-amino-4-methylpentanoylamino)butyrylamino]-5-phenylpentanoylamino}-3-methylpentanoylamino)-3-methyl-butyrate] (H-L[Abu][X1]IV-OMe)	5.70	< 4.52
CC[C@H](C)[C@H](NC(=O)C[C@H](N)[C@H](Cc1ccccc1)NC(=O)[C@H](CC(C)C)NC(=O)CC(C)C)C(=O)N[C@H](C(=O)OC)C(C)C [Compound 3, Methyl (S)-2-((2S,3S)-2-{(3S,4S)-3-amino-4-[(S)-4-methyl-2-(3-methylbutyrylamino)pentanoylamino]-5-phenylpentanoylamino}-3-methylpentanoylamino)-3-methyl-butyrate]	5.26	
CC[C@H](NC(=O)[C@H](CC(C)C)NC(=O)CC(C)C)C(=O)N[C@@H](Cc1ccccc1)[C@@H](N)CC(=O)N[C@H](C(=O)N[C@H](C(=O)OC)C(C)C)[C@@H](C)CC [Compound 4, Methyl (S)-2-[(2S,3S)-2-((3S,4S)-3-amino-4-{(S)-2-[(S)-4-methyl-2-(3-methylbutyrylamino)pentanoylamino]-1-oxobutylamino}-5-phenylpentanoylamino)-3-methyl-pentanoylamino]-3-methylbutyrate] (Isovaleryl-L[Abu][X1]IV-OMe)	7.01	
CC[C@H](NC(=O)[C@H](CC(C)C)NC(=O)CC(C)C)C(=O)N[C@@H](Cc1ccccc1)[C@@H](N)CC(=O)NCCc1ccc(Cl)c(Cl)c1 [Compound 6, N-[2-(3,4-Dichlorophenyl)ethyl]-(3S,4S)-3-amino-4-{(S)-2-[(S)-4-methyl-2-(3-methyl-butyrylamino)pentanoylamino]butyryl-amino}-5-phenylpentanamide]	5.92	< 4.52
CC[C@H](C)[C@H](NC(=O)C[C@H](N)[C@H](Cc1ccccc1)NC(=O)[C@@H](NC(=O)Cc1cccc(OC(F)(F)F)c1)C(C)C)C(=O)N[C@H](C(=O)OC)C(C)C [Compound 7, Methyl (S)-2-[(2S,3S)-2-((3S,4S)-3-amino-4-{(S)-3-methyl-2-[2-(3-trifluoromethoxy-phenyl)acetylamino]butyrylamino}-5-phenylpentanoylamino)-3-methyl-pentanoylamino]-3-methylbutyrate]	7.74	< 4.52
CC[C@H](C)[C@H](NC(=O)C[C@H](N)[C@H](Cc1ccccc1)NC(=O)[C@@H](NC(=O)COc1cccc2ccccc12)C(C)C)C(=O)N[C@H](C(=O)OC)C(C)C [Compound 8, Methyl (S)-2-[(2S,3S)-2-((3S,4S)-3-amino-4-{(S)-3-methyl-2-[2-(naphthalen-1-yloxy)-acetylamino]butyrylamino}-5-phenyl-pentanoylamino)-3-methylpentanoyl-amino]-3-methylbutyrate]	6.70	< 4.52
CC[C@H](C)[C@H](NC(=O)C[C@H](N)[C@H](Cc1ccccc1)NC(=O)[C@@H](NC(=O)[C@H](CC(C)C)NC(=O)CC(C)C)C(C)C)C(=O)N[C@H](C(=O)OC)C(C)C [Compound 10, Methyl (S)-2-[(2S,3S)-2-((3S,4S)-3-amino-4-{(S)-3-methyl-2-[(S)-4-methyl-2-(3-methyl-butyrylamino)pentanoylamino]-1-oxobutylamino}-5-phenylpentanoylamino)-3-methylpentanoylamino]-3-methyl-butyrate] (Isovaleryl-LV[X1]IV-OMe)	8.29	
CC[C@H](C)[C@H](NC(=O)C[C@H](N)[C@H](Cc1ccccc1)NC(=O)[C@@H](NC(=O)[C@H](CC(C)C)NC(=O)CC(C)C)C(C)C)C(=O)N[C@H](C(=O)OC)[C@@H](C)CC [Compound 13, Methyl (2S,3S)-2-[(S)-2-((S)-3-(S)-amino-4-{(S)-3-methyl-2-[(S)-4-methyl-2-(3-methyl-butyrylamino)pentanoylamino]butyryl-amino}-5-phenylpentanoylamino)-3-methyl-1-(S)-oxopentylamino]-3-methylpentanoate] (Isovaleryl-LV[X1]II-OMe)	7.33	
CC[C@H](C)[C@H](NC(=O)C[C@H](N)[C@H](Cc1ccccc1)NC(=O)[C@@H](NC(=O)[C@H](CC(C)C)NC(=O)OC(C)(C)C)C(C)C)C(=O)N[C@H](C(=O)OC)C(C)C [Compound 16, Methyl (S)-2-((2S,3S)-2-{(3S,4S)-3-amino-4-[(S)-2-((S)-2-tert-butoxycarbonylamino-4-methylpentanoylamino)-3-methylbutyrylamino]-5-phenylpentanoylamino}-3-methyl-pentanoylamino)-3-methylbutyrate] (Boc-LV[X1]IV-OMe)	7.44	
CC[C@H](C)[C@H](NC(=O)C[C@H](N)[C@H](Cc1ccccc1)NC(=O)[C@@H](NC(=O)[C@H](Cc1ccccc1)NC(=O)OC(C)(C)C)C(C)C)C(=O)N[C@H](C(=O)OC)C(C)C [Compound 20, Methyl (S)-2-((2S,3S)-2-{(3S,4S)-3-amino-4-[(S)-2-((S)-2-tert-butoxycarbonylamino-3-phenylpropionylamino)-3-methylbutyrylamino]-5-phenylpentanoylamino}-3-methyl-pentanoylamino)-3-methylbutyrate] (Boc-FV[X1]IV-OMe)	9.00	
CC[C@H](C)[C@H](NC(=O)C[C@H](N)[C@H](Cc1ccccc1)NC(=O)[C@@H](NC(=O)[C@@H](N)Cc1ccccc1)C(C)C)C(=O)N[C@H](C(=O)OC)C(C)C [Compound 21, Methyl (S)-2-((2S,3S)-2-{(3S,4S)-3-amino-4-[(S)-2-((S)-2-amino-3-phenylpropionylamino)-3-methylbutyrylamino]-5-phenyl-pentanoylamino)-3-methylpentanoyl-amino)-3-methylbutyrate] (H-FV[X1]IV-OMe)	7.09	
CC[C@H](C)[C@H](NC(=O)C[C@H](N)[C@H](Cc1ccccc1)NC(=O)[C@@H](NC(=O)COc1ccc(Cl)cc1Cl)C(C)C)C(=O)N[C@H](C(=O)OC)C(C)C [Compound 22, Methyl (S)-2-[(2S,3S)-2-((3S,4S)-3-amino-4-{(S)-2-[2-(2,4-dichlorophenoxy)acetylamino]-3-methylbutyrylamino)-5-phenyl-pentanoylamino)-3-methylpentanoyl-amino]-3-methylbutyrate]	7.57	
CC[C@H](C)[C@H](NC(=O)C[C@H](N)[C@H](Cc1ccccc1)NC(=O)[C@@H](NC(=O)[C@H](CC(C)C)NC(=O)CC(C)C)C(C)C)C(=O)N[C@H](CO)C(C)C [Compound 34, N-[(1S,2S)-1-((S)-1-Hydroxymethyl-2-methylpropylcarbamoyl)-2-methylbutyl]-(S)-3-(S)-amino-4-{(S)-3-methyl-2-[(S)-4-methyl-2-(3-methylbutyrylamino)pentanoyl-amino]butyrylamino}-5-phenylpentanamide]	8.21	
CC[C@H](C)[C@H](NC(=O)C[C@H](N)[C@H](Cc1ccccc1)NC(=O)[C@@H](NC(=O)[C@H](Cc1ccccc1)NC(=O)CC(C)C)C(C)C)C(=O)N[C@H](CO)C(C)C [Compound 42, N-[(1S,2S)-1-((S)-1-Hydroxymethyl-2-methylpropylcarbamoyl)-2-methylbutyl]-(S)-3-(S)-amino-4-{(S)-3-methyl-2-[(S)-2-(3-methylbutyrylamino)-3-phenylpropionylamino]butyrylamino}-5-phenylpentanamide]	8.44	
